Reference: US20210276960A1, “INHIBITORS OF TISSUE TRANSGLUTAMINASE 2 (TG2) AND USES THEREOF” (Northwestern University, priority 2020, published 2021)

What was measured:
FN45-TG2 interaction = assay: Bio-layer interferometry (BLI) of FN45-TG2 binding
Protocol: The 45 kDa fibronectin fragment (FN45) corresponding to the TG2 binding region (Sigma, # F0162) was biotinylated using Biotin (Type A) Fast Conjugation Kit (Abcam, # ab201795). Biotinylated FN45 (10 μg/mL in PBS) was captured on pre-hydrated streptavidin-coated sensors (Pall Forte Bio SAX 18-5117). At each TG2 concentration, the binding kinetics were determined by following this sequence run: baseline (PBS for 30 s), association step (varying concentrations of TG2 in PBS for 120 s), and dissociation step (PBS for 120 s). A new FN45 biosensor was prepared for each run. To analyze the effect of the inhibitor MT4 on the interaction between TG2 and FN, a solution of 20 μg/mL of bio-FN45 was used for capturing FN45 on the streptavidin-coated sensors and the association step was 90 s. For each sensor, the capturing step was measured in real-time in order to assess the stability of the signal and the reproducibility between sensors. The saturation level Rmax was 0.6 (+0.08) for all sensors and no dissociation of the biotinylated FN45 was observed over 60 minutes. […] For the experiments with (TG2+MT4), controls were performed at each MT4 concentration and Rmax values were corrected for non-specific binding and any effects of DMSO on the TG2-FN45 interaction (these effects were below 8%). All BLI experiments were performed at 22° C. Data fitted globally using the BLItz Pro 1.10.31 software package as described(14, 15). Isothermal titration calorimetry (ITC) was performed at 25° C. by titrating 160 μM MT4 into a 10 μM solution of TG2 (Sigma, #T5398).

SKOV3 cells = assay: Wound-healing assay, SKOV3; type: cell-based; settings: 8 μM, 24 hours
Protocol: (§1) Wound Healing was Performed in 12-Well Plates Coated with 1 μg/Ml FN (Sigma, #1141) overnight at 4° C. OC cells were plated at a density of 2×10^5 cells/well in media containing 2% FBS. Under these conditions cells adhered on substrate, but cell proliferation was minimized. After 16 hours, the cell monolayer was scraped in straight line. Cell debris was removed and serum free media containing selected SMIs or control was replenished. For consistency during image acquisition, a reference point was marked close to the scratch mark and the plate was imaged under phase-contrast microscope at 0, 2, 6, 12 and 24 hours. Wound closure was assessed as the distance between the wound edges, calculated and quantified using the Image Pro-Express software. The percentage of wound closure was evaluated using the formula […]. The rate of migration (μm/h) of OC cells into the wound space was evaluated as the distance difference between wound edges at 0 and 24 h, divided by 24. The experiments were performed in duplicates.

OVCAR5 cells [1] = assay: Wound-healing assay, OVCAR5; type: cell-based, human; settings: 8 μM, 24 hours
Protocol: as §1

[2] = tested on: OVCAR433 cells adhesion onto LP9 monolayers; assay: Cell adhesion to LP9 mesothelial monolayers, OVCAR433; type: cell-based; settings: at concentrations >10 μM
Protocol: (§2) LP9 mesothelial cells added to clear-bottom 96-well plate at 12,000 cells/well were grown to confluency over 48 hours (h). OC cells were labeled with calcein AM and seeded at a density of 4×10^4 cells to monolayers of mesothelial cells and incubated for 1 h. Non-adherent cells were removed by washing with PBS.

[3] = tested on: OVCAR433 cells adhesion to FN; assay: Solid phase adhesion assay to FN, OVCAR433; type: cell-based; set-up: inhibition of adhesion to FN relative to TG53: dose or concentration left out as unconfirmed
Protocol: (§3) Cells labeled with calcein AM (Life Technologies, #L3224) were seeded at a density of 4×10^4 cells in 96-well plates pre-coated with FN (5 μg/mL, Sigma, #F1141), and blocked using 1% BSA (Sigma, #A9647) in PBS in the presence of selected compounds diluted at the specified concentrations, in serum free media. After 45 minutes, unattached cells were washed using PBS containing 1 mM MgCl2(Sigma, #M8266) and adherent cells were quantified in a SpectraMaxGeminiXS fluorescence plate reader (Molecular Devices, Palo Alto, Calif.) at 530 nm wavelength. Experiments were performed inquadruplicate and repeated at least twice.

SKOV3-GFP cells = assay: In vivo cell attachment to the peritoneum; set-up: species or system mice; settings: for unattached OC cells recovered from the peritoneal cavity: NSG mice, ip, 10 μg/kg, 2 hours after injection
OVCAR5 cells [4] = assay: Colony forming assay after priming, with paclitaxel; type: cell-based, human; settings: priming with 1 μM for 72 hours before 5 nM PTX
Protocol: After 72 h priming with either 1 μM MT-4, TG53 or vehicle (DMSO), 150 OVCAR5 cells were seeded in 60 mm dishes and treated or not with paclitaxel (PTX, Sigma). Colonies were allowed to form over 10 days, fixed in 4% PFA and stained with 0.4% crystal violet (MP Biomedicals). Colonies were counted, and analysis was performed using the ImageJ software ([…]).Spheroid cultures were carried out as previously described(Condello et al., 2015). Briefly, OC cells were resuspended in Mammocult complete medium (StemCell Technologies) supplemented with Mammocult Proliferation Supplements, heparin and hydrocortisone (StemCell Technologies) and seeded at a concentration of 10,000 cells/well in 96-well ultra-low attachment plates (Corning, Corning, N.Y., USA). After treatment with DMSO (control) or TG53 (1 μM) for 7 days, spheroids were counted and quantified by the CCK-8 assay. All assays were performed in four replicates and were repeated. For priming before PTX treatment, cells were manipulated as described for CFU assay and then seeded in 6-well low-attachment plate (Corning, #3473) at 7000 cells/mL/well and allowed to form spheroids in complete Mammocult media. Spheres were counted after ten days from 4 replicate wells. Two independent experiments were performed.

[5] = tested on: SKOV3 cells adhesion onto LP9 monolayers; assay: Cell adhesion to LP9 mesothelial monolayers, SKOV3; type: cell-based; settings: 25 μM
Protocol: as §2

[6] = tested on: SKOV3 cells adhesion to collagen-1; assay: SKOV3 adhesion to collagen-1 coated wells; type: cell-based; settings: 25 μM, collagen-1 20 μg/ml
Protocol: FIG. 13. Top SMIs inhibit cell adhesion to FN. A, Effects of top compounds (25 μM) on SKOV3 cells adhesion to FN. B, Dose-dependent effects (1-25 μM) of TG53 on SKOV3 cell adhesion to FN. […] D, Effects of TG53 (25 μM) on SKOV3 cells adhesion to wells coated with collagen-1 (20 μg/ml). E, Effects of TG53 (25 μM) on SKOV3-control or AS-TG2 cells adhesion to FN. Bars represent means+/−SEM of quadruplicate measurements. * denote p<0.05.
as §3

Protocol for Tolerability in vivo: Three doses were administered 25, 50 and 100 mg/kg to cohorts of 3 mice. A) Average weights, B) average white blood cell counts (WBC), C) average hemoglobin (Hgb) and D) average platelet (Plt) counts measured 1 week after administration at the 3 doses (n=3).

Row | SMILES | FN45 and rTG2 complex formation (FN45-TG2 interaction; FN45 on sensors incubated with MT4, 16 nM to 500 μM, 15, 30, 45 minutes) | dissociation of FN45-TG2 (FN45-TG2 interaction; TG2 pre-incubated with MT4) | association between FN45 and rTG2 (FN45-TG2 interaction; rTG2 incubated with MT4 prior to BLI) | motility (scratch repair) (SKOV3 cells) | motility (scratch repair) (OVCAR5 cells [1]) | OVCAR433 adhesion to the LP9 layer [2] | inhibition of adhesion to FN relative to TG53 [3] | cell adhesion to FN, dose dependence ([3]; 2 μM-25 μM) | unattached OC cells recovered from the peritoneal cavity (SKOV3-GFP cells) | unattached OC cells recovered from the peritoneal cavity (SKOV3-GFP cells; listed as MT4) | adhesion of cancer cells to the peritoneum (SKOV3-GFP cells; nude mice, i.p., 2 hours) | colony formation (OVCAR5 cells [4]) | SKOV3 cell binding to the mesothelial layer [5] | hematological toxicity (Tolerability in vivo; WBC, Hgb, Plt 1 week after administration) | tolerated dose (Tolerability in vivo; doses 25, 50 and 100 mg/kg) | adhesion to collagen [6]
1 | Cc1cc(N(C)C)nc(Nc2ccc(NC(=O)Cc3ccccc3)cc2)n1 [MT-4] | not affected | faster dissociation | Dose-dependent inhibition | inhibited | inhibited | dose-dependent inhibitory effect | more active than TG53 | dose-dependent inhibitory effect | attached less efficiently | Increased numbers | prevented the adhesion | diminished | significantly decreased | – | – | –
2 | COc1ccc(Cl)cc1C(=O)Nc1ccc(Nc2nc(C)cc(N(C)C)n2)cc1 [TG53] | – | – | – | – | – | – | – | – | – | – | – | – | – | did not induce | up to 50 mg/kg | did not inhibit
